The values below come from patent publication US11453642B2, “Oxygenated amino- or ammonium-containing sulfonic acid, phosphonic acid and carboxylic acid derivatives and their medical use” (GRI BIO, INC., priority 2011, dated 2022).

In data set [1] the test system is allergic contact dermatitis response in mice. In words: Allergic contact dermatitis (TDI) model in mice, mouse ear swelling test. The class given is in vivo. The method, then:
The anti-inflammatory and anti-allergic effects of compounds 1a and 1c were assessed in a mouse model of allergic contact dermatitis, a response driven primarily by T helper type 2 (Th2) cells. […] In this model, an allergic dermatitis response is obtained by sensitizing mice to TDI and subsequently challenging them with antigen by topical administration onto the ears. A quantitative assessment of anti-inflammatory and anti-allergic effects of topically or orally administered test compounds is possible by measuring the resulting ear swelling. The advantages of the allergic contact dermatitis model (Zöllner et al., Bioessays 26:693-6 (2004)) are reproducibility and reliability (>90% of BALB/c mice respond to sensitization), a short induction protocol, quantitative assessment by measuring ear thickness, atopic dermatitis-like skin lesions can be induced, and clinically relevant pharmaceuticals, such as corticosteroids, calcineurin-inhibitors and PDE4-inhibitors, are effective in this model.
Female BALB/c-mice were obtained from Charles River (Sulzfeld, Germany) at age 8 weeks. All animals were housed in groups of eight per cage at 22° C. with a 12 h light/dark-cycle, Water and a standard diet (Altromin, Lage/Lippe, Germany) were available ad libitum. All animals were acclimatized for one week before experimental procedures were commenced.
Experimental procedures for BALB/c mice housing, TDI sensitization and challenge, and measurement of ear thickness were performed as previously described (Baumer et al., J Pharm Pharmacol, 55:1107-1114 (2003)) with the following modifications. For active sensitization, 100 μL of 5% (w/v) TDI was administered to the shaved and stripped abdominal epidermis on day one, and for the next three consecutive days, 50 μL of 5% (My) TDI was applied. The allergic reaction was boosted 21 days later by application of 50 μL of 0.5% (w/v) TDI. For the examination of test compound effects, the left ears were used for the TDI challenge (20 μL of 0.5% in acetone) and ear thickness measured 3 h before and 24 h after challenge.
Group size was n=7 mice unless otherwise stated. Test compounds were freshly prepared before administration.
Administration time: to determine optimal time for administration treatment groups were treated orally by gavage with 100 mg/kg of compound 1a or 1c (suspended in 0.5% tylose, 10 mL/kg) 1, 4 or 16 h before topical TDI challenge. One group was treated with 100 mg/kg miltefosine orally, 16 h before challenge (based on available data for optimal administration time for miltefosine) and vehicle treated mice received tylose (10 mL/kg) orally, 4 h before challenge.
Dose-response: two groups of mice were treated orally with compound 1a at 25 mg/kg or 100 mg/kg suspended in 0.5% tylose, 4 h before topical TDI challenge. Vehicle treated mice received 0.5% tylose orally 4 h before challenge. As a positive control, dexamethasone was administered in saline solution at 1 mg/kg or 3 mg/kg, 2 h and 30 min before challenge and 1 h after challenge. The dose and dosing scheme for dexamethasone was based on previous experience showing a maximal effect in this model.
Compound 1a was administered to two groups of mice topically in 20 μl of a 2% or 6% solution in propyleneglycol. The suspension was heated to 60° C. and mixed using a thermomixer (Eppendorf) until it became clear. The solution was applied, 2 h before topical TDI challenge by administration of 10 μl onto each of the inner and outer surfaces of the left ears. A vehicle group (17=5) was treated with propyleneglycol. As a positive control, diflorasone, diacetate was administered at 0.01% (low dose) and 0.05% (high dose) in 20 μl acetone, 2 h before challenge. A basal control group was left untreated.
Mean and standard error of the mean (SEM) were calculated from individual ear edema values. […]

Data set [2] shares this test system. The data set is described as above. The class given is in vivo. The note with it: topical, 0.5% in 20 μl acetone, 2 h before challenge.
In data set [3] the test system is local lymph node reaction. The experiment in a line: Local lymph node weight and cell count after TDI challenge. As to conditions: topical 1a 2% or 6%, diflorasone 0.1% and 0.5%. Format: in vivo, mice. As to the method: Directly after sacrifice, the ear draining lymph node (Ln. auricularis) was prepared and excised. Organ weight was determined by means of an analytical balance (Kern, Balingen, Germany). Single cell suspensions were prepared by means of a glass potter (VWR, Darmstadt, Germany) and cells were counted with a hemocytometer (Neubauer, VWR, Germany).
One of the most undesirable side-effects of corticosteroid administration is immunosuppression, which leads to the inability to effectively address parasitic infection, wound healing and tumor growth. In the current study, the local lymph node reaction after TDI challenge (lymph node weight and cell number) was determined to assess the response of immune organs.

SMILES strings stand for the structures. Marks after values point to notes of the source that are not given here.

Take `CC(=O)OCC(=O)[C@@]1(OC(C)=O)[C@@H](C)C[C@H]2[C@@H]3C[C@H](F)C4=CC(=O)C=C[C@]4(C)[C@@]3(F)[C@@H](O)C[C@@]21C` [Diflorasone, diflorasone diacetate, reference compound]: in data set [1] (topical positive control, ear thickness reduced below level of untreated mice), the “effect on ear swelling (in words)” value is listed as “completely eliminated ear swelling”. In addition, the “Inhibition of mouse ear swelling” value in data set [1] (topical, 0.1% in 20 μl acetone, 2 h before challenge) is recorded as 101.1*** %; in data set [2], 110.8*** %. Moreover, the “local lymph node reaction (lymph node weight and cell number)” value in data set [3] was “completely inhibiting the increase”.
